Measured values as given in patent US11634396B2 (priority 2021, dated 2023).

Molecular target: human mOR (Homo sapiens (Human), UniProt P35372)
Assay: cell-based
Conditions: not given
Description: CHO Tag-lite human mOR stable cell line from Cisbio (NCBI accession number: NM_000914.3, Bedford, Mass.) were seeded and grown to approximately 80% confluence in Ham F-12 with 10% FBS, 50 U/ml penicillin, 50 μg/ml streptomycin, 2 mM Hepes, and 1 mg/ml geneticin (Invitrogen, Carlsbad, Calif.). Cells were then harvested using accutase (Corning. Coming, N.Y.), centrifuged at 1300 RPM for 5 min, and plated at 5000 cells per 5 μL per well in a 5× dilution of stimulation buffer consisting of the HTRF cAMP Gi kit, water and IBMX at 0.5 mM (Cisbio, Bedford, Mass.) in white HTRF low volume 384 well plates (Cisbio, Bedford, Mass.). Plates were then incubated at 37° C. in 5% CO2 for 10 minutes. For the agonist assay, forskolin was added to a final concentration of 4 μM. […] Test compounds were dissolved in DMSO and water, and then serially diluted to working concentrations such that the concentration of DMSO was less than 0.1%. Diluted test compounds were added at 2.5 μL per well, and plates were incubated at 37° C., and 5% CO2 for 15 minutes, and then at room temperature for 15 minutes. Next 5 μl/well of cAMP Eu-cryptate and 5 μl/well of anti-cAMP-d2 (both diluted 1:20 in lysis buffer) were added, and plates were incubated at room temperature for 1 hour. Following incubation, plates were read in a Synergy Neo2 multi-mode reader (Biotek, Winooski, Vt.). […] For the agonist assay, data was normalized using the maximal DAMGO response. Measurements were performed in triplicate and the dose response was fit using nonlinear regression.

Chain of human mOR (P35372 whole entry): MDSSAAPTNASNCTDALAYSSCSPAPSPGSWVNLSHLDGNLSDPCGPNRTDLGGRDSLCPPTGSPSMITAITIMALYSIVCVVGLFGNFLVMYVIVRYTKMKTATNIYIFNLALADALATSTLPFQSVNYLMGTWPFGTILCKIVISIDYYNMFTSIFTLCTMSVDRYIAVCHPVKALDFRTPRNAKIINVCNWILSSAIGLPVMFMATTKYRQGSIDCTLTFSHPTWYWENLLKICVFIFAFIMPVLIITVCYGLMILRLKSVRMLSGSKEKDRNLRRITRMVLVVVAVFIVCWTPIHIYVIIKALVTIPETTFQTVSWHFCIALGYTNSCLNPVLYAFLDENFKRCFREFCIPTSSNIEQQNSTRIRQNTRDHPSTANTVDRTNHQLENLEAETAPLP

**Q.** CN(C)[C@H](CNC(=O)C[C@H](c1cncs1)C1(C(F)(F)F)CC1)Cc1ccc(C(N)=O)c(F)c1 [Compound 55, 4-((S)-2-(dimethylamino)-3-((S)-3-(thiazol-5-yl)-3-(1-(trifluoromethyl)cyclopropyl)propanamido)propyl)-2-fluorobenzamide] was tested. Which IC50 did it give?
**A.** < 300 nM

**Q.** For CNC(=O)c1ccc(C[C@@H](CNC(=O)C[C@H](c2ccc(C)nc2)C2(C(F)(F)F)CC2)N(C)C)c(C)c1F [Compound 125, 4-((S)-2-(dimethylamino)-3-((R)-3-(6-methylpyridin-3-yl)-3-(1-(trifluoromethyl)cyclopropyl)propanamido)propyl)-2-fluoro-N,3-dimethylbenzamide], which IC50 is on record?
**A.** < 300 nM

**Q.** For Cc1cc(O)ccc1C[C@@H](CNC(=O)C[C@H](c1cccnc1)C1(C(F)(F)F)CC1)N(C)C [Compound 269, (R)-N-((S)-2-(dimethylamino)-3-(4-hydroxy-2-methylphenyl)propyl)-3-(pyridin-3-yl)-3-(1-(trifluoromethyl)cyclopropyl)propanamide], which IC50 is on record?
**A.** < 300 nM

**Q.** CN(C)[C@H](CNC(=O)C[C@H](c1ccncc1)C1CC1)Cc1ccc(O)c(Cl)c1 [Compound 277, (S)-N-((S)-3-(3-chloro-4-hydroxyphenyl)-2-(dimethylamino)propyl)-3-cyclopropyl-3-(pyridin-4-yl)propanamide] was tested. Which IC50 did it give?
**A.** < 300 nM

**Q.** With Cc1ncc([C@@H](CC(=O)NC[C@H](Cc2ccc(O)c(Cl)c2)N(C)C)C2(C(F)(F)F)CC2)cn1 [Compound 283, (R)-N-((S)-3-(3-chloro-4-hydroxyphenyl)-2-(dimethylamino)propyl)-3-(2-methylpyrimidin-5-yl)-3-(1-(trifluoromethyl)cyclopropyl)propanamide] as the compound, how does the IC50 read?
**A.** < 300 nM

**Q.** How did the IC50 turn out when Cc1ncc([C@@H](CC(=O)NC[C@H](Cc2ccc(C(N)=O)c(F)c2F)N(C)C)C2(C(F)(F)F)CC2)s1 [Compound 1, 4-((S)-2-(dimethylamino)-3-((S)-3-(2-methylthiazol-5-yl)-3-(1-(trifluoromethyl)cyclopropyl)propanamido)propyl)-2,3-difluorobenzamide] was run?
**A.** < 300 nM

**Q.** Which IC50 does the source give for CN(C)[C@H](CNC(=O)C[C@H](c1cccnc1)C1(C(F)(F)F)CC1)Cc1ccc(O)cc1 [Compound 306, (R)-N-((S)-2-(dimethylamino)-3-(4-hydroxyphenyl)propyl)-3-(pyridin-3-yl)-3-(1-(trifluoromethyl)cyclopropyl)propanamide] here?
**A.** < 300 nM

**Q.** With COc1ccc(C[C@@H](CNC(=O)C[C@H](c2cccnc2)C2(C(F)(F)F)CC2)N(C)C)c(Cl)c1F [Compound 259, (R)-N-((S)-3-(2-chloro-3-fluoro-4-methoxyphenyl)-2-(dimethylamino)propyl)-3-(pyridin-3-yl)-3-(1-(trifluoromethyl)cyclopropyl)propanamide] as the compound, how does the IC50 read?
**A.** > 3000 nM

**Q.** How did the IC50 turn out when Cc1c(C[C@@H](CNC(=O)C[C@H](c2ccncc2)C2(C(F)(F)F)CC2)N(C)C)ccc2[nH]c(=O)oc12 [Compound 170, (R)-N-((S)-2-(dimethylamino)-3-(7-methyl-2-oxo-2,3-dihydrobenzo[d]oxazol-6-yl)propyl)-3-(pyridin-4-yl)-3-(1-(trifluoromethyl)cyclopropyl)propanamide] was run?
**A.** < 300 nM

Same assay, conditions: CHO Tag-lite human mOR stable cell line; forskolin 4 μM and DAMGO at EC90; read-out: mOR cAMP Antagonist Assay IC50

**Q.** With CN(C)[C@H](CNC(=O)C[C@@H](CC1CC1)c1cncnc1)Cc1ccc(C(N)=O)c(F)c1 [Compound 64, 4-((S)-3-((R)-4-cyclopropyl-3-(pyrimidin-5-yl)butanamido)-2-(dimethylamino)propyl)-2-fluorobenzamide] as the compound, how does the IC50 read?
**A.** < 300 nM

**Q.** How did the IC50 turn out when Cc1cc([C@@H](CC(=O)NC[C@H](Cc2ccc3[nH]ncc3c2)N(C)C)C2(C(F)(F)F)CC2)ccn1 [Compound 202, (R)-N-((S)-2-(dimethylamino)-3-(1H-indazol-5-yl)propyl)-3-(2-methylpyridin-4-yl)-3-(1-(trifluoromethyl)cyclopropyl)propanamide] was run?
**A.** < 300 nM
